{
  "source": "patent US20050153870A1",
  "about": "“Medicinal composition for diagnosis, prevention, or therapy of multiple risk factor syndrome” (priority 2002, published 2005)",
  "key": {"Lean": {"system": "Lean", "test": "Body weight and blood sugar in Lean mice (Example 7)", "type": "in vivo, mouse", "settings": "for Body weight / Blood sugar level: in feed for a week (MAC 0.05%, AS-103 0.05%, AR-610 0.1%, AF 0.4%, AC 0.05%); for Body weight: control group 20.9 ± 0.8; for Blood sugar level: control group 211.2 ± 7.8; for Blood sugar level, change vs control group / Body weight, change vs control group: in feed for a week, contents as in table", "method": "[The procedure below names another variant; the source lists this variant under the same test.] (§1) Powered feed to which ascofuranone (AF) and ascochlorin (AC) as well as its derivatives, 4-0-methylascochlorin (MAC), 4-0-carboxymethylascochlorin (AS-6), and 4-0-nicotinoyl ascochlorin (AS-103) were added to feed at the proportions shown in the table, and the feed were given to db/db mice for a week and then analyzed for blood sugar decreasing effect (8 mice/group)."}, "db/db mice": {"system": "db/db mice", "test": "Blood sugar decreasing effect in db/db mice (Example 7)", "type": "in vivo, mouse", "settings": "for Body weight / Blood sugar level: in feed for a week (MAC 0.05%, AS-103 0.05%, AR-610 0.1%, AF 0.4%, AC 0.05%); for Body weight: control group 44.6 ± 0.9; for Blood sugar level: control group 549.8 ± 21.8; for Blood sugar level, change vs control group / Body weight, change vs control group: in feed for a week, contents as in table", "method": "as §1"}, "Mouse": {"system": "Mouse", "test": "Appetite suppressing effect", "type": "in vivo", "settings": "mouse fasted 48 hours; 1 to 2 mg/kg perorally one hour before feeding; feed given for 2 hours"}, "Anesthetized rat": {"system": "Anesthetized rat", "test": "Blood pressure decreasing effect, acute test", "type": "in vivo", "settings": "2 mg/kg perorally", "method": "Compounds of this series has an antihypertensive effect in various types of test animal models. The antihypertensive effect is confirmed not only in an acute test, in which arterial blood pressure of anesthetized rats and dogs is measured, but also in a chronic test using DOCA hypertensive rats, which are prepared by excising one of the kidneys and administering mineral corticoid and saline thereto, naturally-occurring hypertensive rats, which is an animal morbid model of essential hypertensive disease, and ob/ob mice, which are hereditary diabetic obese […]."}, "[1]": {"system": "Mouse, rat, beagle dog, quail, DOCA hypertension rat", "test": "Serum cholesterol decreasing effect", "type": "in vivo", "settings": "incl. rat and quail raised with hyperfat feed", "method": "The quails are raised by giving a feed containing 2% cholesterol for 9 months to develop hypercholesteremia, and, in the case of the rats, mineral corticoid and saline are administered to allow them to develop heart and blood vessel disease and then hypercholesteremia."}, "Rat": {"system": "Rat", "test": "Glucogenesis in the liver", "type": "in vivo", "settings": "perorally", "from_the_text": "Compounds of this series suppresses hepatic glucogenesis which is induced by administration of dexamethazon to a rat. For this reason, it antagonizes the action of glucocorticoid in vivo. The compound further has an effect of suppressing steroid diabetes characterized by polydipsia and polyurea and urine sugar excretion induced by administering cortisol to a rat. […] These facts strongly support that compounds of this series is useful in preventing and/or treating visceral fat syndrome."}, "[2]": {"system": "SHR rat of high-incidence fat deposition group", "test": "Fat deposition on the mesenteric artery", "type": "in vivo", "settings": "perorally"}},
  "note": "Marks after values point to notes of the source that are not given here.",
  "data": [
    {"smiles": "CC(/C=C/C1(C)C(C)CCC(=O)C1C)=C\\Cc1c(O)c(C=O)c(C)c(Cl)c1OC(=O)c1cccnc1", "note": "(stereo not drawn) [AS-103, 4-0-nicotinoyl ascochlorin]", "values": [
      {"measurement": "Body weight", "setting": "Lean", "value": "18.4 ± 0.3", "unit": "g"},
      {"measurement": "Blood sugar level", "setting": "Lean", "value": "181.8 ± 7.6", "unit": "mg/dL"},
      {"measurement": "Blood sugar level, change vs control group", "setting": "Lean", "value": "−13.9", "unit": "%*"},
      {"measurement": "Body weight, change vs control group", "setting": "Lean", "value": "−12.0", "unit": "%**"},
      {"measurement": "Body weight", "setting": "db/db mice", "value": "42.0 ± 1.9", "unit": "g"},
      {"measurement": "Blood sugar level", "setting": "db/db mice", "value": "331.3 ± 45.2", "unit": "mg/dL"},
      {"measurement": "Blood sugar level, change vs control group", "setting": "db/db mice", "value": "−39.7", "unit": "%**"},
      {"measurement": "Body weight, change vs control group", "setting": "db/db mice", "value": "ns"}
    ]},
    {"smiles": "CC(/C=C/[C@@]1(C)[C@H](C)CCC(=O)[C@@H]1C)=C\\Cc1c(O)c(Cl)c(C)c(C=O)c1O", "note": "[AC, ascochlorin]", "values": [
      {"measurement": "Body weight", "setting": "Lean", "value": "16.1 ± 0.3", "unit": "g"},
      {"measurement": "Blood sugar level", "setting": "Lean", "value": "184.8 ± 10.9", "unit": "mg/dL"},
      {"measurement": "Blood sugar level, change vs control group", "setting": "Lean", "value": "−12.5", "unit": "%**"},
      {"measurement": "Body weight, change vs control group", "setting": "Lean", "value": "−23.0", "unit": "%**"},
      {"measurement": "amount of feed (appetite suppressing effect)", "setting": "Mouse", "value": "feed is suppressed in a dose dependent manner."},
      {"measurement": "decrease of average blood pressure of the carotid artery", "setting": "Anesthetized rat", "value": "decreases by 20 to 30 mmHg."},
      {"measurement": "Body weight", "setting": "db/db mice", "value": "38.9 ± 1.8", "unit": "g"},
      {"measurement": "Blood sugar level", "setting": "db/db mice", "value": "262.1 ± 11.8", "unit": "mg/dL"},
      {"measurement": "Blood sugar level, change vs control group", "setting": "db/db mice", "value": "−52.3", "unit": "%**"},
      {"measurement": "Body weight, change vs control group", "setting": "db/db mice", "value": "−12.8", "unit": "%**"},
      {"measurement": "serum cholesterol decreasing effect", "setting": "[1]", "value": "carboxymethylascochlorin, and ascofuranone exhibits an effect of decreasing serum"},
      {"measurement": "glucogenesis performed in the liver", "setting": "Rat", "value": "performed in the liver is suppressed."}
    ]},
    {"smiles": "C/C(=C\\Cc1c(O)c(Cl)c(C)c(C=O)c1O)CC/C=C(\\C)[C@@H]1CC(=O)C(C)(C)O1", "note": "[AF, ascofuranone]", "values": [
      {"measurement": "Body weight", "setting": "Lean", "value": "21.8 ± 0.4", "unit": "g"},
      {"measurement": "Blood sugar level", "setting": "Lean", "value": "161.1 ± 8.3", "unit": "mg/dL"},
      {"measurement": "Blood sugar level, change vs control group", "setting": "Lean", "value": "−23.7", "unit": "%**"},
      {"measurement": "Body weight, change vs control group", "setting": "Lean", "value": "ns"},
      {"measurement": "Body weight", "setting": "db/db mice", "value": "44.8 ± 1.4", "unit": "g"},
      {"measurement": "Blood sugar level", "setting": "db/db mice", "value": "385.5 ± 40.9", "unit": "mg/dL"},
      {"measurement": "Blood sugar level, change vs control group", "setting": "db/db mice", "value": "−29.9", "unit": "%**"},
      {"measurement": "Body weight, change vs control group", "setting": "db/db mice", "value": "ns"},
      {"measurement": "serum cholesterol decreasing effect", "setting": "[1]", "value": "carboxymethylascochlorin, and ascofuranone exhibits an effect of decreasing serum"},
      {"measurement": "fat deposition in a ring form on the mesenteric artery", "setting": "[2]", "value": "mesenteric artery, disappearance of fat deposition is accelerated."}
    ]}
  ]
}
